# Experimental data reported in EPA's ToxValDB 9.5 (doi:10.2903/j.efsa.2009.205r).
# Columns and labels:
# Typhlodromus pyri = assay: LR50; higher = less toxic; details: not reported; mortality
# Apis mellifera = details: acute, mortality
# Tagia sp. = details: for LC50: acute, duration: 14 days, mortality
# Plant = details: chronic/long-term; duration: 14 days
# Daphnia magna = details: chronic/long-term; duration: 21 days; reproduction
# Bibionidae = details: chronic/long-term; duration: 28 days
# Landoltia sp. = details: chronic/long-term; duration: 14 days
smiles,measurement,setting,value
C[C@@H](Oc1ccc(Oc2cnc3cc(Cl)ccc3n2)cc1)C(=O)OCC1CCCO1 (stereo partly drawn) [Quizalofop P tefuryl],LR50,Typhlodromus pyri,< 100 g/ha
same,LD50,Apis mellifera; dermal,> 100 µg/piece
same,LD50,"Apis mellifera; oral, unspecified",16.8 µg/piece
same,LC50,Tagia sp.,16.9 mg/kg
same,LD50,"Anas platyrhynchos; acute, oral, unspecified, mortality",> 2150 mg/kg
same,NOEC,Anas platyrhynchos; reproductive,68.7 mg/kg-day
same,LC50,"Anas platyrhynchos; short-term, oral, feed, mortality",> 259 mg/kg-day
same,LD50,"Rattus norvegicus; acute, oral, mortality",1010 mg/kg-day
same,NOAEL,"Rattus norvegicus; chronic, duration: 2 years, oral, diet",1.3 mg/kg-day
same,NOAEL,"Rattus norvegicus; reproduction developmental, mortality",10 mg/kg-day
same,NOAEL,"Rattus norvegicus; reproduction developmental, reproduction",16.9 mg/kg-day
same,NOAEL,"Rattus norvegicus; subchronic, duration: 90 days, oral, organ weight",1.7 mg/kg-day
same,LC50,"Colinus virginianus; acute, oral, diet, mortality",> 487 mg/kg-day
same,LD50,"Colinus virginianus; acute, oral, mortality",> 2150 mg/kg
same,NOEC,Colinus virginianus; reproduction developmental,69.4 mg/kg-day
CC(Oc1ccc(Oc2cnc3cc(Cl)ccc3n2)cc1)C(=O)O (stereo not drawn) [Quizalofop],NOEC,Plant,0.094 mg/L
same,LC50,Tagia sp.,948 mg/kg
same,NOEC,Tagia sp.; chronic/long-term,> 50 mg/kg
same,LC50,"Oncorhynchus mykiss; acute, duration: 96 hours, mortality",> 100 µg/mL
same,NOEC,"Oncorhynchus mykiss; chronic/long-term, duration: 28 days, growth",46.2 mg/L
same,NOEC,Daphnia magna,0.82 mg/L
same,NOEC,Bibionidae,35.7 mg/L
same,NOEC,Landoltia sp.,3.2 mg/L
